The values below come from paper PMC11684029, “Discovery of VU6024578/BI02982816: An mGlu1 Positive Allosteric Modulator with Efficacy in Preclinical Antipsychotic and Cognition Models” (Journal of Medicinal Chemistry, 2024).

What is called inhibition is the relative decrease from the control value, in per cent. A word on the % Inhibition: it is the share of the control response that was lost under treatment. A low value points to a weak effect.

The target in series [1] is T1, CGRP (Homo sapiens, UniProt O60894+Q16602).
T1 construct: Eurofins (panel run as a service)
T1 sequence (Q16602 23-461): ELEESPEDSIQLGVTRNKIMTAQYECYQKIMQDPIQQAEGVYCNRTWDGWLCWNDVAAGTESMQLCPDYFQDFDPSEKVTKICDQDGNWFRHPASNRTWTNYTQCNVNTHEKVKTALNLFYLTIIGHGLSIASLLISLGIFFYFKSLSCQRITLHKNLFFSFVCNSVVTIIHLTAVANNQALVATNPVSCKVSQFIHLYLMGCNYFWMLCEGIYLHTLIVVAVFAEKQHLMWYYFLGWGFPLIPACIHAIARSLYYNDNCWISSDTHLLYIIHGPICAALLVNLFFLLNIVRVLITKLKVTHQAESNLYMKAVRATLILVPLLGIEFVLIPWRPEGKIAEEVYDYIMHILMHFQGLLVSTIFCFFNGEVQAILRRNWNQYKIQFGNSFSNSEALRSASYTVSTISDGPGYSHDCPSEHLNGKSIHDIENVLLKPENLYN
T1 sequence (O60894 27-148 partner): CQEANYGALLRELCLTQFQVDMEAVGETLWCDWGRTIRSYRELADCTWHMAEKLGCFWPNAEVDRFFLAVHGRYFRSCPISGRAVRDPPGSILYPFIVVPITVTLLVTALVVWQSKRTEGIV
Briefly: Eurofins radioligand binding panel. The conditions noted are these: agonist radioligand. The source says: (§1) Table S1. Eurofins Lead Profiling Screen Data
(§2) This is a radioligand binding panel of 80 targets including GPCRs, ion channels, transporters and nuclear hormones. Biochemical assay results are presented as the percent inhibition of specific […]
(§3) Results showing an inhibition or stimulation higher than 50% are considered to represent significant effect and are highlighted […]
(§4) Target / Protein Species % Inhibition at 10 […]

Series [2] has as its target T2, Adrenergic beta 1 (Homo sapiens, UniProt P08588).
T2 construct: Eurofins
Briefly: Eurofins radioligand binding panel. The following applies: agonist radioligand.
Source text: as §1, §2, §3, §4

In series [3] the target is T3, Adenosine A3 (Homo sapiens, UniProt P0DMS8).
T3 construct: Eurofins
T3 sequence (P0DMS8 whole entry): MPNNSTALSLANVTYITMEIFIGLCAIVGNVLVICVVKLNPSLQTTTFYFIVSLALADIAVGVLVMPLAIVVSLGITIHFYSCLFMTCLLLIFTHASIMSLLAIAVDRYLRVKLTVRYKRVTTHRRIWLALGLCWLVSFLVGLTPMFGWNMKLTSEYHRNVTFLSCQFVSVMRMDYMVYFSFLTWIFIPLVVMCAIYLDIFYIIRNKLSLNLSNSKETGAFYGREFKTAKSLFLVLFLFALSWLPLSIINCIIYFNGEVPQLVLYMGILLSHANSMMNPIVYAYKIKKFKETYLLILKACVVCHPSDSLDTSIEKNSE
The experiment in a line: Eurofins radioligand binding panel. The following applies: agonist radioligand.
Source text: as §1, §2, §3, §4

Series [4] addresses T4, CB1 (Homo sapiens, UniProt P21554).
T4 construct: Eurofins (panel run as a service)
The experiment in a line: Eurofins radioligand binding panel. The following applies: agonist radioligand.
Source text: as §1, §2, §3, §4

For series [5], the target named is T5, BZD (peripheral) (Rattus norvegicus, UniProt P16257).
T5 construct: Eurofins (panel run as a service)
The experiment in a line: Eurofins radioligand binding panel. The following applies: antagonist radioligand.
Source text: as §1, §2, §3, §4

Series [6] concerns the target T6, Adrenergic beta 2 (Homo sapiens, UniProt P07550).
T6 construct: Eurofins
Briefly: Eurofins radioligand binding panel. The conditions noted are these: antagonist radioligand.
Source text: as §1, §2, §3, §4

Series [7] addresses T7, B2 (Homo sapiens, UniProt P30411).
T7 construct: Eurofins (panel run as a service)
Briefly: Eurofins radioligand binding panel. The following applies: agonist radioligand.
Source text: as §1, §2, §3, §4

In series [8] the target is T8, CCK1 (CCKA) (Homo sapiens, UniProt P32238).
T8 construct: Eurofins (panel run as a service)
T8 sequence (P32238 whole entry): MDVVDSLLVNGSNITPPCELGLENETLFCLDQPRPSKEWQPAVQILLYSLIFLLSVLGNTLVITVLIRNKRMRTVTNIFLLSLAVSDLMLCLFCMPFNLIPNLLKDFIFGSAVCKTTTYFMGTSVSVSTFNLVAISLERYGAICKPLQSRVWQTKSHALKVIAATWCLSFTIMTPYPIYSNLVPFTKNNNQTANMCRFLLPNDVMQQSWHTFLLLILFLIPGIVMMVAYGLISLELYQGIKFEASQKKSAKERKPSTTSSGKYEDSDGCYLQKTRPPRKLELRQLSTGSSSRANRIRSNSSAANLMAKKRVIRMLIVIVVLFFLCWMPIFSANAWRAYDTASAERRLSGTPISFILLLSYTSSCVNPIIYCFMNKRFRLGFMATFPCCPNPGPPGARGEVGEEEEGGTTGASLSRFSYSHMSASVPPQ
Briefly: Eurofins radioligand binding panel. The conditions noted are these: agonist radioligand.
Source text: as §1, §2, §3, §4

Series [9] relates to BZD (central). Briefly: Eurofins radioligand binding panel. The following applies: agonist radioligand.
Source text: as §1, §2, §3, §4

Series [10] concerns the target T9, AT2 (Homo sapiens, UniProt P50052).
T9 construct: Eurofins (panel run as a service)
The experiment in a line: Eurofins radioligand binding panel. The conditions noted are these: agonist radioligand.
Source text: as §1, §2, §3, §4

The target of series [11] is T10, Adenosine A2A (Homo sapiens, UniProt P29274).
T10 construct: Eurofins
T10 sequence (P29274 whole entry): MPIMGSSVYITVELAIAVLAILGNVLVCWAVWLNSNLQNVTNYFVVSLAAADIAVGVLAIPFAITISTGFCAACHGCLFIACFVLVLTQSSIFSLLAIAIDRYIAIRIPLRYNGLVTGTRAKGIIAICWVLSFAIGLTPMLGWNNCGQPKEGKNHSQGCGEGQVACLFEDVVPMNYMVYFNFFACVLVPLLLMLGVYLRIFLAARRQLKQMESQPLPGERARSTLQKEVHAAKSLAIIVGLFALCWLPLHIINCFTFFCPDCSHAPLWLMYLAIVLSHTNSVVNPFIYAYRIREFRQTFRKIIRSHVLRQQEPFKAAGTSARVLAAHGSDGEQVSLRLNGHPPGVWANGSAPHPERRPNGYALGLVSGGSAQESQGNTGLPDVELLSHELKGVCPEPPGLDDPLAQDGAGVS
The experiment in a line: Eurofins radioligand binding panel. The conditions noted are these: agonist radioligand.
Source text: as §1, §2, §3, §4

In series [12] the target is T11, AT1 (Homo sapiens, UniProt P30556).
T11 construct: Eurofins
T11 sequence (P30556 whole entry): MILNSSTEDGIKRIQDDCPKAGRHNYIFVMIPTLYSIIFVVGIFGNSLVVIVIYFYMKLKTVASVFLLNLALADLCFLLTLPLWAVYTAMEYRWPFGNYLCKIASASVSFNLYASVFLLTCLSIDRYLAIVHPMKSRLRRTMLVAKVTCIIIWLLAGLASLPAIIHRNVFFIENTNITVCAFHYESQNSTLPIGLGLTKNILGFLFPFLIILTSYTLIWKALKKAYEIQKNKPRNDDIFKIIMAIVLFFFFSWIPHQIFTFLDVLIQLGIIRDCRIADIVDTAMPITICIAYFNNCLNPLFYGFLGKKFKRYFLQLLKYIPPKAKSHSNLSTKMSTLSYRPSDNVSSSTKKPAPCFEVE
The experiment in a line: Eurofins radioligand binding panel. The conditions noted are these: antagonist radioligand.
Source text: as §1, §2, §3, §4

The nature of series [13]: rat IP PBL study. The conditions noted are these: 3 mg/kg IP, at Tmax. Type of series: in vivo. The source says:
Thus, 19d was a stable chemical entity in vivo. […] Overall, the rat PK and CNS penetration was supportive of in vivo work and progression down the development flow-chart.

Series [14] can be described thus: glutathione trapping of reactive intermediates. Format: in vitro ADME. The method, then:
Across species, 19d had acceptable fraction unbound in both plasma (fu (plasma): 0.03 (human), 0.041 (rat), 0.025 (cyno), 0.039 (dog) and 0.056 (mouse)) and brain (fu (brain): 0.034 (rat) and 0.081 (mouse)).
In Vitro Glutathione Conjugates of 19d
Figure S1. 19d was incubated in rat and human liver microsomes for 1 hr (with and without
NADPH) with 20 µM glutathione.
conjugates, most likely due to reactive intermediate formation from the 2-furanyl southern […]

Series [15] in a line: PK in parallel to rat locomotor battery. Type of series: in vivo. Here is the method:
(§5) In order to enable our target validation work, we first profiled PAM 19d in a rat locomotor battery to ensure that pharmacodynamic efficacy was not mistaken for gross effects on locomotion.[20] […] PK was performed in parallel to establish a PK/PD relationship.[24]
Figure S2. 19d assessed in rat locomotor battery A: Exposure of 19d in the locomotor battery experiment. […]

In series [16] the test system is Sprague–Dawley rats. Briefly: catalepsy (latency to withdraw). Type of series: in vivo. The conditions noted are these: rat, doses up to 10 mg/kg p.o., 100 min postdose. The method, then: as §5
Control rats were injected with 1.5 mg/kg of haloperidol i.p. (dissolved in 8% lactic acid and taken to volume of 50 mL with sterile water) and were returned to their home cage for 90 min. Cataleptic behavior is determined by placing the forelimbs on a bar raised 6 cm above the table and recording the amount of time it takes for the rat to withdraw the forelimbs with a cutoff of 60 s. Data are expressed as mean latency to withdraw + SEM or percent inhibition of catalepsy + SEM.

Series [17] concerns rats. Briefly: MK-801 induced disruption of novel object recognition. The following applies: rat, p.o. Type of series: in vivo. The method, then:
Based on our previous work with the mGlu1 PAM 4,[6]−[9],[14]−[19] we first evaluated the ability of 19d to reverse MK-801 disruptions of novel object recognition (NOR) in rats (Figure 6).
Figure 6 Rat MK-801 induced disruption of novel object recognition and reversal by VU6024578 (19d). MK-801 (0.5 mg/kg IP) induced a robust disruption of NOR, which was dose-dependently reversed by oral administration (10% tween 80) of 19d.
The animals are habituated to the novel object arenas for 1 day prior to testing. This is accomplished by placing the animal in the arena with no objects for 10 min and then placed back into the home cage. The arena is then cleaned with 70% ethanol in between animals. The day of the test the animals are habituated to the dosing room for 2 h. The animals were administered VU6024578 (1–10 mg/kg p.o.) or vehicle (10% Tween 80) and were placed back into their homecage for 60 min. The animals were then injected with MK-801 (0.075 mg/kg 1 mL/kg s.c.) and placed back in the homecage for 30 min. […] The activity of the animals are recorded and the time spent exploring each of the objects is scored by a blinded observer. Recognition index is determined by subtracting […] divided by total time spent exploring.

“Also recorded” adds a separate entry of the source.

T6 sequence (P07550 whole entry): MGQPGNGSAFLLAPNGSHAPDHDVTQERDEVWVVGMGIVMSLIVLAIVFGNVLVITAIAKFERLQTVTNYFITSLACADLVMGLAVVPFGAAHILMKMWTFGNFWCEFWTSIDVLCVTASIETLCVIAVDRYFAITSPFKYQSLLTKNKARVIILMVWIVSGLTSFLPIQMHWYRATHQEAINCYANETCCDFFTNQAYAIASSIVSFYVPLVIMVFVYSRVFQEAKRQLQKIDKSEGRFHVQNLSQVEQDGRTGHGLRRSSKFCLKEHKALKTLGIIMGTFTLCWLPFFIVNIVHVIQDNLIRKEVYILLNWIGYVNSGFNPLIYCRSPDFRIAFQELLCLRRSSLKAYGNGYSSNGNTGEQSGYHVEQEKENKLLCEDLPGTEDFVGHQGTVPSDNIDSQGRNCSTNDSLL
T2 sequence (P08588 whole entry): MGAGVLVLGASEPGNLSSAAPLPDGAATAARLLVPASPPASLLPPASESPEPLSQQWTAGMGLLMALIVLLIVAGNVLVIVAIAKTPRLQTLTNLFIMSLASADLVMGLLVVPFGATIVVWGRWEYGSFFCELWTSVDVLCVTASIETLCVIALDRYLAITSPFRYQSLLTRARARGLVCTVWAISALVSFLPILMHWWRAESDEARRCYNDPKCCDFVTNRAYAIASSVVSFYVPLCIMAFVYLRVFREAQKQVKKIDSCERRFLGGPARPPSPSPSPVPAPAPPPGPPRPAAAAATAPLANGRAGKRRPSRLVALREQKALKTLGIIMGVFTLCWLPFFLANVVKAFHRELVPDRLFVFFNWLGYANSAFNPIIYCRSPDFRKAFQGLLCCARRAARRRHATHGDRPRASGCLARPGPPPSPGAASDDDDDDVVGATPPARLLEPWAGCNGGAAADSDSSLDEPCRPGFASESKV
T4 sequence (P21554 whole entry): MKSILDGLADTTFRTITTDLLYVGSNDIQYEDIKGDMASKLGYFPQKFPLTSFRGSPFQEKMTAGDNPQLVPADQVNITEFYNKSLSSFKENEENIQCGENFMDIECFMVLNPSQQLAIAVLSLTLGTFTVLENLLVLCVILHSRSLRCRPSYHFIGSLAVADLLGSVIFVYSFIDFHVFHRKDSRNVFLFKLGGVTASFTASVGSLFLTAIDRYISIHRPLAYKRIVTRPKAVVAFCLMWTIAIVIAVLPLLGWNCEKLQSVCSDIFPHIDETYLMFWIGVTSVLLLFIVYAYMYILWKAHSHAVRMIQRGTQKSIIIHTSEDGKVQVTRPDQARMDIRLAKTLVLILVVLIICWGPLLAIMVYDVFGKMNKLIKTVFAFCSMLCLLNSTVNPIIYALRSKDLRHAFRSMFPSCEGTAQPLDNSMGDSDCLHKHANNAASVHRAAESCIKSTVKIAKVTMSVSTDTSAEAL
T7 sequence (P30411 whole entry): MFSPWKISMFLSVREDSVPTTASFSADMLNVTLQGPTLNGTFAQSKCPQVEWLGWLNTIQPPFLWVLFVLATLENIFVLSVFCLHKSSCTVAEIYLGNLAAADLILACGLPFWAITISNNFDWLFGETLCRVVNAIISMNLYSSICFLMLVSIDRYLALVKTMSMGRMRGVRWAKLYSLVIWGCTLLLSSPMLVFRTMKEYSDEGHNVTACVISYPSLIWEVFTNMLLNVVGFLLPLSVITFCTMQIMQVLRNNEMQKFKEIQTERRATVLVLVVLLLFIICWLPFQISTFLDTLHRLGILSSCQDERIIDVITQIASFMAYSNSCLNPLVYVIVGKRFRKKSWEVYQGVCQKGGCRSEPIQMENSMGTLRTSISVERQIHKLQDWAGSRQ
T9 sequence (P50052 whole entry): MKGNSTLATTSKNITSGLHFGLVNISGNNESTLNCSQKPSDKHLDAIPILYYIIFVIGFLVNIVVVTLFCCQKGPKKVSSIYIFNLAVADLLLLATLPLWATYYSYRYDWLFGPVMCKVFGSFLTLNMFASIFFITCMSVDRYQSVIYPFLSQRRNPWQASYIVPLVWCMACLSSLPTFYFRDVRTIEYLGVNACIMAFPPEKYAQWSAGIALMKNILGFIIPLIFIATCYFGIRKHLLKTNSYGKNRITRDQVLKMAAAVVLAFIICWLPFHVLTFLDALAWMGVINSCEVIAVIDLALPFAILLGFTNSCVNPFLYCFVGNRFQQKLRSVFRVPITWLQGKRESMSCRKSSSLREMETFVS

For `Cn1nc(-c2ccnn2C)cc1CNC(=O)c1cc(-c2ccco2)ccc1Cl` [Compound 19d, 2-Chloro-N-((1,2′-dimethyl-1H,2’H-[3,3′-bipyrazol]-5-yl)methyl)-5-(furan-2-yl)benzamide], the inhibition at 10 µM in series [1] is 1%; in series [2], 1%; in [3], 23%; in series [4] it was 0%; in [5], 96%; in series [6], -1%. Besides, the inhibition at 10 µM in series [7] is 7%; in [8], 7%; in series [10], 2%; in series [11], -1%; in series [12], -1%. Also, the “% Inhibition at 10 µM” value in series [9] came out at 5%. For the same compound, the “Br[unbound]” value in [13] stood at 68 nM. For the same compound, the glutathione conjugates result in series [14] (human liver microsomes with glutathione) and in series [14] (rat liver microsomes with glutathione) was “multiple glutathione; also recorded: a number of minor glutathione conjugates with four involving the furanyl ring” in each case. This compound displayed a Kp in series [15] (brain, rat locomotor battery PK) of around 0.75. This compound also displayed a free brain concentration in series [15] (rat, 10 mg/kg) of 0.134 µM. In addition, the “free brain concentration over in vitro EC50” value in [15] (rat, 10 mg/kg) is reported as around 2.9 fold. Also, the catalepsy entry in [16] is listed as “lack of effect; also recorded: without effect”. In [17], the “minimum effective dose (MED), MK-801 disrupted NOR” value was found to be 10 mg/kg.
